Results published in US20260250290A1 (BRISTOL-MYERS SQUIBB COMPANY, priority 2023, published 2026).

Molecular target: T1, full length SGK1 (Homo sapiens, UniProt O00141)
T1 construct: 125 μM full length SGK1 (Life Technologies Part #PR7358A); purchased Life Technologies PR7358A
T1 sequence (O00141 1-431): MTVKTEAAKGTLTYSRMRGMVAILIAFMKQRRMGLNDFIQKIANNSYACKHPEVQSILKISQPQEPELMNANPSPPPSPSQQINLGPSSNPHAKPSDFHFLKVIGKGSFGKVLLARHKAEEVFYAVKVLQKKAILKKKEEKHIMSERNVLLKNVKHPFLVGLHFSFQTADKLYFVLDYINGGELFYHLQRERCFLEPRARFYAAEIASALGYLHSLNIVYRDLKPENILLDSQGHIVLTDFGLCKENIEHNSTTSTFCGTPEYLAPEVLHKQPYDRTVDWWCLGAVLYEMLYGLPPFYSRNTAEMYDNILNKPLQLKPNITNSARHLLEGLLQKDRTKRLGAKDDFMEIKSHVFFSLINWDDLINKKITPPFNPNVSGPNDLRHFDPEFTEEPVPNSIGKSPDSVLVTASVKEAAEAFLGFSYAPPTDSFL
Test: SGK1 inhibition Assay A (Caliper LabChip electrophoretic separation of fluorescent peptide substrate and phosphorylated product)
Type: biochemical
Conditions: Assay A; 20 μM ATP, 40 min incubation; read-out: SGK1 IC50

Row | Structure (SMILES) | IC50 [nM]
1 | N#Cc1cccc(-c2ccc(C(=O)N[C@@H]3CCCN(c4cc(-c5ccnc(C(F)F)c5)n5ncnc(N)c45)C3)s2)c1 [Example 544, (R)-N-(1-(4-amino-7-(2-(difluoromethyl)pyridin-4-yl)pyrrolo[2,1-f][1,2,4]triazin-5-yl)piperidin-3-yl)-5-(3-cyanophenyl)thiophene-2-carboxamide] | 5
2 | CC(C)(C)OC(=O)N1CC=C(c2ccc(C(=O)N[C@@H]3CCCN(c4cc(-c5ccnc(C(F)F)c5)n5ncnc(N)c45)C3)s2)CC1 [Example 545, tert-butyl (R)-4-(5-((1-(4-amino-7-(2-(difluoromethyl)pyridin-4-yl)pyrrolo[2,1-f][1,2,4]triazin-5-yl)piperidin-3-yl)carbamoyl)thiophen-2-yl)-3,6-dihydropyridine-1(2H)-carboxylate] | 22
3 | CC(C)(C)OC(=O)N1CC=C(c2ccc(C(=O)N[C@@H]3CCCN(c4cc(-c5ccnc(C(F)F)c5)n5ncnc(N)c45)C3)s2)C1 [Example 546, tert-butyl (R)-3-(5-((1-(4-amino-7-(2-(difluoromethyl)pyridin-4-yl)pyrrolo[2,1-f][1,2,4]triazin-5-yl)piperidin-3-yl)carbamoyl)thiophen-2-yl)-2,5-dihydro-1H-pyrrole-1-carboxylate] | 29
4 | CC(=O)N1CC=C(c2cc(N3CCC[C@@H](NC(=O)c4ccc(-c5cncnc5)s4)C3)c3c(N)ncnn23)C1 [Example 548, (R)-N-(1-(7-(1-acetyl-2,5-dihydro-1H-pyrrol-3-yl)-4-aminopyrrolo[2,1-f][1,2,4]triazin-5-yl)piperidin-3-yl)-5-(pyrimidin-5-yl)thiophene-2-carboxamide] | 90
5 | CC(=O)N1CC=C(c2cc(N3CCC[C@@H](NC(=O)c4ccc(-c5cn[nH]c5)s4)C3)c3c(N)ncnn23)C1 [Example 550, (R)-N-(1-(7-(1-acetyl-2,5-dihydro-1H-pyrrol-3-yl)-4-aminopyrrolo[2,1-f][1,2,4]triazin-5-yl)piperidin-3-yl)-5-(1H-pyrazol-4-yl)thiophene-2-carboxamide] | 8
6 | CC(=O)N1CC=C(c2cc(N3CCC[C@@H](NC(=O)c4ccc(-c5cncc(C#N)c5)s4)C3)c3c(N)ncnn23)C1 [Example 551, (R)-N-(1-(7-(1-acetyl-2,5-dihydro-1H-pyrrol-3-yl)-4-aminopyrrolo[2,1-f][1,2,4]triazin-5-yl)piperidin-3-yl)-5-(5-cyanopyridin-3-yl)thiophene-2-carboxamide] | 6
7 | CC(=O)N1CC=C(c2cc(N3CCC[C@@H](NC(=O)c4ccc(-c5cnc(C#N)nc5)s4)C3)c3c(N)ncnn23)C1 [Example 552, (R)-N-(1-(7-(1-acetyl-2,5-dihydro-1H-pyrrol-3-yl)-4-aminopyrrolo[2,1-f][1,2,4]triazin-5-yl)piperidin-3-yl)-5-(2-cyanopyrimidin-5-yl)thiophene-2-carboxamide] | 27
8 | Nc1ncnn2c(-c3ccnc(C(F)F)c3)cc(N3CCC[C@@H](NC(=O)c4ccc(C5=CCNCC5)s4)C3)c12 [Example 553, (R)-N-(1-(4-amino-7-(2-(difluoromethyl)pyridin-4-yl)pyrrolo[2,1-f][1,2,4]triazin-5-yl)piperidin-3-yl)-5-(1,2,3,6-tetrahydropyridin-4-yl)thiophene-2-carboxamide] | 16
9 | CC(=O)N1CC=C(c2cc(N3CCC[C@@H](NC(=O)c4sc(-c5ccnc(C(F)F)c5)cc4OCCN(C)C)C3)c3c(N)ncnn23)C1 [Example 555, (R)-N-(1-(7-(1-acetyl-2,5-dihydro-1H-pyrrol-3-yl)-4-aminopyrrolo[2,1-f][1,2,4]triazin-5-yl)piperidin-3-yl)-5-(2-(difluoromethyl)pyridin-4-yl)-3-(2-(dimethylamino)ethoxy)thiophene-2-carboxamide] | 7
10 | CC(=O)N1CC=C(c2cc(N3CCC[C@@H](NC(=O)c4sc(-c5ccnc(F)c5)cc4OCCN(C)C)C3)c3c(N)ncnn23)C1 [Example 556, (R)-N-(1-(7-(1-acetyl-2,5-dihydro-1H-pyrrol-3-yl)-4-aminopyrrolo[2,1-f][1,2,4]triazin-5-yl)piperidin-3-yl)-3-(2-(dimethylamino)ethoxy)-5-(2-fluoropyridin-4-yl)thiophene-2-carboxamide] | 6
11 | COC(=O)N1CC=C(c2cc(N3CCC[C@@H](NC(=O)c4sc(Cl)cc4OC4CCNCC4)C3)c3c(N)ncnn23)C1 [Example 561] | 2
12 | COC(=O)N1CC=C(c2cc(N3CCC[C@@H](NC(=O)c4sc(Cl)cc4OC4CCN(C)CC4)C3)c3c(N)ncnn23)C1 [Example 562, methyl (R)-3-(4-amino-5-(3-(5-chloro-3-((1-methylpiperidin-4-yl)oxy)thiophene-2-carboxamido)piperidin-1-yl)pyrrolo[2,1-f][1,2,4]triazin-7-yl)-2,5-dihydro-1H-pyrrole-1-carboxylate] | 2
13 | COC(=O)N1CC=C(c2cc(N3CCC[C@@H](NC(=O)c4sc(Cl)cc4OC4CCN(C(C)C)CC4)C3)c3c(N)ncnn23)C1 [Example 563, methyl (R)-3-(4-amino-5-(3-(5-chloro-3-((1-isopropylpiperidin-4-yl)oxy)thiophene-2-carboxamido)piperidin-1-yl)pyrrolo[2,1-f][1,2,4]triazin-7-yl)-2,5-dihydro-1H-pyrrole-1-carboxylate] | 3
14 | COC(=O)N1CC=C(c2cc(N3CCC[C@@H](NC(=O)c4sc(Cl)cc4OC4CCN(CCO)CC4)C3)c3c(N)ncnn23)C1 [Example 564, methyl (R)-3-(4-amino-5-(3-(5-chloro-3-((1-(2-hydroxyethyl)piperidin-4-yl)oxy)thiophene-2-carboxamido)piperidin-1-yl)pyrrolo[2,1-f][1,2,4]triazin-7-yl)-2,5-dihydro-1H-pyrrole-1-carboxylate] | 2
15 | COC(=O)N1CC=C(c2cc(N3CCC[C@@H](NC(=O)c4sc(Cl)cc4OC4CCN(C(C)=O)CC4)C3)c3c(N)ncnn23)C1 [Example 565, methyl (R)-3-(5-(3-(3-((1-acetylpiperidin-4-yl)oxy)-5-chlorothiophene-2-carboxamido)piperidin-1-yl)-4-aminopyrrolo[2,1-f][1,2,4]triazin-7-yl)-2,5-dihydro-1H-pyrrole-1-carboxylate] | 3
16 | COC(=O)N1CC=C(c2cc(N3CCC[C@@H](NC(=O)c4sc(Cl)cc4OC4CCN(CC(F)F)CC4)C3)c3c(N)ncnn23)C1 [Example 566, methyl (R)-3-(4-amino-5-(3-(5-chloro-3-((1-(2,2-difluoroethyl)piperidin-4-yl)oxy)thiophene-2-carboxamido)piperidin-1-yl)pyrrolo[2,1-f][1,2,4]triazin-7-yl)-2,5-dihydro-1H-pyrrole-1-carboxylate] | 12
17 | COC(=O)N1CC=C(c2cc(N3CCC[C@@H](NC(=O)c4sc(Cl)cc4OC4COC4)C3)c3c(N)ncnn23)C1 [Example 567, Methyl (R)-3-(4-amino-5-(3-(5-chloro-3-(oxetan-3-yloxy)thiophene-2-carboxamido)piperidin-1-yl)pyrrolo[2,1-f][1,2,4]triazin-7-yl)-2,5-dihydro-1H-pyrrole-1-carboxylate] | 4
18 | COC(=O)N1CC=C(c2cc(N3CCC[C@@H](NC(=O)c4sc(Cl)cc4OC4CNC4)C3)c3c(N)ncnn23)C1 [Example 568, Methyl (R)-3-(4-amino-5-(3-(3-(azetidin-3-yloxy)-5-chlorothiophene-2-carboxamido)piperidin-1-yl)pyrrolo[2,1-f][1,2,4]triazin-7-yl)-2,5-dihydro-1H-pyrrole-1-carboxylate] | 5
19 | COC(=O)N1CC=C(c2cc(N3CCC[C@@H](NC(=O)c4sc(Cl)cc4OC4CCNC4)C3)c3c(N)ncnn23)C1 (stereo partly drawn) [Example 569, Methyl 3-(4-amino-5-((3R)-3-(5-chloro-3-(pyrrolidin-3-yloxy)thiophene-2-carboxamido)piperidin-1-yl)pyrrolo[2,1-f][1,2,4]triazin-7-yl)-2,5-dihydro-1H-pyrrole-1-carboxylate] | 3
20 | COC(=O)N1CC=C(c2cc(N3CCC[C@@H](NC(=O)c4sc(Cl)cc4OC4CCNC4)C3)c3c(N)ncnn23)C1 (stereo partly drawn) [Example 570, Methyl 3-(4-amino-5-((3R)-3-(5-chloro-3-(pyrrolidin-3-yloxy)thiophene-2-carboxamido)piperidin-1-yl)pyrrolo[2,1-f][1,2,4]triazin-7-yl)-2,5-dihydro-1H-pyrrole-1-carboxylate] | 3
21 | COC(=O)N1CC=C(c2cc(N3CCC[C@@H](NC(=O)c4sc(Cl)cc4OCC4CCNCC4)C3)c3c(N)ncnn23)C1 [Example 571, Methyl (R)-3-(4-amino-5-(3-(5-chloro-3-(piperidin-4-ylmethoxy)thiophene-2-carboxamido)piperidin-1-yl)pyrrolo[2,1-f][1,2,4]triazin-7-yl)-2,5-dihydro-1H-pyrrole-1-carboxylate] | 8
22 | COC(=O)N1CC=C(c2cc(N3CCC[C@@H](NC(=O)c4sc(Cl)cc4OC4CCN(C5COC5)CC4)C3)c3c(N)ncnn23)C1 [Example 572, Methyl (R)-3-(4-amino-5-(3-(5-chloro-3-((1-(oxetan-3-yl)piperidin-4-yl)oxy)thiophene-2-carboxamido)piperidin-1-yl)pyrrolo[2,1-f][1,2,4]triazin-7-yl)-2,5-dihydro-1H-pyrrole-1-carboxylate] | 3
